# Patent publication US7943186B2, “Hydroxycitric acid compositions, pharmaceutical and dietary supplements and food products made therefrom, and methods for their use in reducing body weight” (Interhealth Nutraceuticals, Inc., priority 1997, dated 2011)
# Tests used:
# Solubility in water = assay type: physicochemical
# Hygroscopicity = assay type: physicochemical
# fatty acid synthesis = conditions: biological systems, profused organs and intact mammals; cited from earlier work
# rats = conditions: cited from earlier work
solubility in water (in words) (Solubility in water),hygroscopicity (Hygroscopicity),SMILES,inhibition of fatty acid synthesis (fatty acid synthesis),body weight (rats),lipid accumulation (rats)
moderately soluble,minimal hygroscopicity,O=C([O-])C[C@@](O)(C(=O)[O-])[C@H](O)C(=O)[O-].O=C([O-])C[C@@](O)(C(=O)[O-])[C@H](O)C(=O)[O-].[Ca+2].[Ca+2].[Ca+2] [pure calcium salt],,,
highly soluble,high hygroscopicity,O=C([O-])C[C@@](O)(C(=O)[O-])[C@H](O)C(=O)[O-].[K+].[K+].[K+] [pure potassium salt],,,
,,O=C(O)CC(O)(C(=O)O)C(O)C(=O)O (stereo not shown) [hydroxycitric acid],substantially inhibit fatty acid synthesis,significantly reduce the body weight,lower lipid accumulation
